The values below come from patent publication US10562890B2, “Cancer therapeutics” (UNIVERSITY OF VIRGINIA PATENT FOUNDATION, priority 2014, dated 2020).

As a reminder, the IC50 is the concentration needed to halve the response being measured.

The target in experiment [1] is CBFβ binding to the RUNX1 Runt domain (Homo sapiens (Human), UniProt Q13951). Kind of experiment: FRET assay, inhibition of CBFβ binding to the RUNX1 Runt domain. The note with it: inhibition of wild-type CBFβ binding to the RUNX1 Runt domain; NA = not active. From the text: Fluorescence Resonance Energy Transfer (FRET) Assay:
As described in U.S. Pat. No. 8,748,618 and published PCT application WO2010/132684, a FRET assay can be used to effectively monitor the inhibition of CBF binding to the Runt domain of RUNX proteins (as well as for CBFβ-SMMHC binding to the Runt domain of RUNX proteins). For the assay, the green fluorescent protein derivative Cerulean is fused to the N-terminus of the Runt domain and the green fluorescent protein derivative Venus to the N-terminus of CBFβ (Gorczynski, M. J., J. Grembecka, et al. (2007), “Allosteric inhibition of the protein-protein interaction between the leukemia-associated proteins Runx1 and CBFbeta.” Chem Biol 14(10): 1186-97), or to CBFβ-SMMHC (Illendula, A. et al. Chemical biology. A small-molecule inhibitor of the aberrant transcription factor CBFbeta-SMMHC delays leukemia in mice. Science 347, 779-784, doi:10.1126/science.aaa0314 (2015)). The ratio of the emission intensities at 525 nm and 474 nm, measured after excitation at 433 nm, was used as the readout in this assay. The dynamic range for the FRET assay was determined by adding a 30-fold excess of untagged CBFβ (or CBFβ-SMMHC) to the assay and the associated change in the FRET ratio was defined as 100% inhibition.

Another experiment has as its system MCF10A-5E cells. Nature of the experiment: Multiacini formation in 3D culture of MCF10A-5E cells. The experiment is classed as cell-based. Particulars: shRUNX1 or control cells, 3D culture 10-11 days, compared to carrier control or Al-4-88. The text has this: CBFβ inhibitors altered acinar morphogenesis of the basal-like (triple negative) breast epithelial cells and blocked survival of basal-like breast cancer cells in 3D organotypic culture. To evaluate whether CBFβ inhibition would influence the multicellular organization of basal-like breast epithelia, 3D culture of MCF10A-5E cells was used. Knockdown of RUNX1 in these cells delayed proliferation arrest and promoted the formation of nonspherical acini, indicating a role for RUNX1 during morphogenesis.
The multiacini resulting from CBFβ inhibition were not radially symmetric, thereby arguing against a general defect in cell polarity or proliferation arrest. Instead, the inhibitors appeared to be initiating a nascent branching program that is reminiscent of when TGFβ-family signaling is impaired.
FIG. 9A: MCF10A-5E cells stably expressing shRUNX1 or shGFP control were grown in 3D culture for 10-11 days with the indicated compounds and imaged by Brightfield microscopy. The total number of multiacini per chamber was counted and scaled to the shGFP DMSO control. Data are shown as the mean±SEM of eight independent cultures.

A further experiment deals with T-ALL cell lines. Kind of experiment: Apoptosis in T-ALL cell lines. The experiment is classed as cell-based, human.
Experiment [2] has as its system primary T-ALL patient samples. Kind of experiment: Apoptosis of primary T-ALL patient samples. The class given is cell-based, human.

CBFβ binding to the RUNX1 Runt domain, sequence (Q13951 1-141): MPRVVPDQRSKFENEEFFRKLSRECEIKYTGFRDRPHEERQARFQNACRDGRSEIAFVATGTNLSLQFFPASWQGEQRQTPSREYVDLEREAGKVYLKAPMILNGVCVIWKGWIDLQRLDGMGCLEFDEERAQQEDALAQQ

Take `COc1cccnc1-c1nc2cc(OC(F)(F)F)ccc2[nH]1` [Al-10-104]: the IC50 in experiment [1] was found to be 2.65 ± 0.18 µM. Besides, the “formation of multiacinar structures” value in the experiment with MCF10A-5E cells was “dramatic increase”. In addition, the apoptosis entry (with T-ALL cell lines; in experiment [2]) was “induced apoptosis” in each case.
